Laboratory results: US20090258045A1, “[…] ANTIMICROBIAL PEPTIDES” (Massachusetts Institute of Technology, priority 2008, published 2009)

Legend:
S. aureus [1] = experiment: Staphyloccocus aureus macrodilution assay; type: cell-based, Staphylococcus aureus
Protocol: Staphyloccocus aureus macrodilution assays. All liquid assays were performed in cation-adjusted Mueller Hinton Broth II (CMHB). Qualitative assays were performed following standard macrodilution methods as outlined by the National Committee on Clinical Laboratory Standards (Standards, N. C. f. C. L. Journal, 1999, Approved standard M26-A) with a challenge of 10^5 CFU/mL. For assays involving co-incubation with films deposited on silicon, 24-well plates were used, with 0.5 mL of liquid culture per well. Briefly, each square-cut silicon substrate (1.0 cm×1.0 cm), either bare or coated depending on the test group, was placed flat in the center of a well in a 24-well plate, polished side up. Each well was then filled with 0.50 mL of S. aureus in exponential growth phase at 10^5 CFU/mL in CMHB, completely immersing the substrate. Quantitative assays were done in 96-well plates with 150 μL of liquid culture per well, with 135 μL of test media and 15 μL of inoculation culture at 10^6 CFU/mL in CMHB. All test media were sterile-filtered through 0.2 μm membranes prior to use. […] Cell density was read at OD 600 nm in a BioTek® PowerWave™ XS Microplate Spectrophotometer with accompanying Gen5 program Version 1.00.14. […]
Antimicrobial activity of Ponericin as released from LbL assemblies. In vitro activity of Ponericin, both in dipping solution and as released from films, were assessed against S. aureus. […]

S. aureus [2] = conditions: free Ponericin; cited from earlier work

## Ponericin G1
S. aureus [1]; dipping solution: free Ponericin in 0.1M sodium acetate (FIG. 7A)
  concentration needed to inhibit S. aureus proliferation: 11 to 22 µg/mL
S. aureus [1]; film-released: elution buffer of [(Poly 1/HA)(Pon/HA)]100 (FIG. 7B)
  concentration needed to inhibit S. aureus proliferation: 11 to 22 µg/mL
S. aureus [2]
  reported MIC: 4 to 8 µg/mL
